Laboratory results reported in patent US4051315A, “6"-Deoxykanamycin B and 6"-deoxytobramycin” (priority 1975, dated 1977).
Values after ≈ are worked out from the molar mass of the structure shown. Like-named read-outs stand apart in the source and are kept apart here.

Experiments:
Type in all cases: cell-based
[1] = tested on: S. marcescens A20019; test: two-fold agar dilution MIC, Sm-1
[2] = tested on: a variety of gram-positive and gram-negative bacteria; test: antibacterial activity by two-fold agar dilution method, overall statement
[3] = tested on: K. pneumoniae D11; test: two-fold agar dilution MIC, Kp-1; conditions: Klebsiella pneumoniae
[4] = tested on: P. aeruginosa A20896 GAT-3; test: two-fold agar dilution MIC, Pa-24
[5] = tested on: P. mirabilis A9554 CL-R; test: two-fold agar dilution MIC, Pm-1
[6] = tested on: P. aeruginosa GN-4925; test: two-fold agar dilution MIC, Pa-45; conditions: Pseudomonas aeruginosa
[7] = tested on: P. aeruginosa #130 GAT-1, NPT; test: two-fold agar dilution MIC, Pa-16
[8] = tested on: S. marcescens A21247 NPT-1, GAS; test: two-fold agar dilution MIC, Sm-16; conditions: Serratia marcescens
[9] = tested on: B. subtilis PCT-219; test: two-fold agar dilution MIC, Bs-1; conditions: Bacillus subtilis
[10] = tested on: P. aeruginosa A9930; test: two-fold agar dilution MIC, Pa-3; conditions: Pseudomonas aeruginosa
[11] = tested on: S. aureus A20239 NPT-1,2; test: two-fold agar dilution MIC, Sa-10
[12] = tested on: S. aureus D137 PC, TC, EM-R; test: two-fold agar dilution MIC, Sa-9
[13] = tested on: P. stuartii A20894 GAT-2; test: two-fold agar dilution MIC, Ps-2; conditions: Ps-2
[14] = tested on: E. coli A20107 NPT-2; test: two-fold agar dilution MIC, Ec-49; conditions: Escherichia coli
[15] = tested on: E. cloacae A21006 NPT-2; test: two-fold agar dilution MIC, E1-12
[16] = tested on: E. coli JR66/W677 NPT-2, GAS; test: two-fold agar dilution MIC, Ec-53
[17] = tested on: P. vulgaris A9436; test: two-fold agar dilution MIC, Pv-1
[18] = tested on: P. aeruginosa GN-315 KAT; test: two-fold agar dilution MIC, Pa-27
[19] = tested on: E. coli NR79/W677 KAT; test: two-fold agar dilution MIC, Ec-9; conditions: Escherichia coli, NR79/W677KAT
[20] = tested on: S. aureus Smith; test: two-fold agar dilution MIC, Sa-2; conditions: Staphylococcus aureus
[21] = tested on: P. aeruginosa A20601 GAT-1; test: two-fold agar dilution MIC, Pa-21; conditions: Pseudomonas aeruginosa
[22] = tested on: E. coli JR88 CAT-1; test: two-fold agar dilution MIC, Ec-62
[23] = tested on: E. coli NIHJ; test: two-fold agar dilution MIC, Ec-1
[24] = tested on: E. coli A20732 GAS; test: two-fold agar dilution MIC, Ec-72; conditions: Escherichia coli, A20732GAS
[25] = tested on: K. pneumoniae 22-3038 NPT-2, GAS; test: two-fold agar dilution MIC, Kp-8
[26] = tested on: E. coli ML1630 NPT-1; test: two-fold agar dilution MIC, Ec-5; conditions: Escherichia coli
[27] = tested on: P. aeruginosa A20653 NPT-1,2; test: two-fold agar dilution MIC, Pa-12; conditions: Pseudomonas aeruginosa
[28] = tested on: E. coli JR35/C600 NPT-1; test: two-fold agar dilution MIC, Ec-10
[29] = tested on: Pseudomonas sp. A20621 KAT, NPT-1,2; test: two-fold agar dilution MIC, Px-10
[30] = tested on: E. coli P01495 CP.TC-R; test: two-fold agar dilution MIC, Ec-2; conditions: Escherichia coli, P01495CP.TCR
[31] = tested on: S. aureus D133 SH, Sth-R; test: two-fold agar dilution MIC, Sa-4
[32] = tested on: E. coli R5 KAT; test: two-fold agar dilution MIC, Ec-55
[33] = tested on: E. cloacae A20364 NPT-1; test: two-fold agar dilution MIC, E1-2; conditions: Enterobacter cloacae
[34] = Staphylococcus aureus, Run 1, read-out: MIC

## CC1OC(OC2C(N)CC(N)C(OC3OC(CN)C(O)CC3N)C2O)C(O)C(N)C1O (centres unmarked) [compound 6, 6"-Deoxytobramycin]
[1]; Run 2
  MIC: 6.3 µg/mL (≈ 14 µM)
[1]; Serratia marcescens, A20019, Run 1, read-out: MIC
  MIC: 6.3 µg/mL (≈ 14 µM)
[2]
  antibacterial activity: excellent antibacterial activity
[3]; D11, Run 1
  MIC: 0.2 µg/mL (≈ 0.443 µM)
[3]; D11, Run 2
  MIC: 0.4 µg/mL (≈ 0.886 µM)
[4]; Pseudomonas aeruginosa, A20896GAT3, Run 1, read-out: MIC
  MIC: > 100 µg/mL
[4]; Run 2
  MIC: > 100 µg/mL
[5]; Proteus mirabilis, A9554CLR, Run 1, read-out: MIC
  MIC: 0.8 µg/mL (≈ 1.77 µM)
[5]; Run 2
  MIC: 0.8 µg/mL (≈ 1.77 µM)
[6]; GN4925, Run 1
  MIC: 100 µg/mL (≈ 221 µM)
[6]; GN4925, Run 2
  MIC: 100 µg/mL (≈ 221 µM)
[7]; Pseudomonas aeruginosa, Run 1, read-out: MIC
  MIC: 6.3 µg/mL (≈ 14 µM)
[7]; Run 2
  MIC: 6.3 µg/mL (≈ 14 µM)
[8]; Run 1
  MIC: 100 µg/mL (≈ 221 µM)
[8]; Run 2
  MIC: 50 µg/mL (≈ 111 µM)
[9]; PCT219, Run 1
  MIC: < 0.05 µg/mL
[9]; PCT219, Run 2
  MIC: < 0.05 µg/mL
[10]; A9930, Run 1
  MIC: 0.4 µg/mL (≈ 0.886 µM)
[10]; A9930, Run 2
  MIC: 0.4 µg/mL (≈ 0.886 µM)
[11]; Run 2, Sa-10
  MIC: 0.8 µg/mL (≈ 1.77 µM)
[11]; Staphylococcus aureus
  MIC: 0.8 µg/mL (≈ 1.77 µM)
[12]; Run 2
  MIC: 3.1 µg/mL (≈ 6.87 µM)
[12]; [34]
  MIC: 3.1 µg/mL (≈ 6.87 µM)
[13]; Providencia stuartii, A20894GAT2, Run 1, read-out: MIC
  MIC: 25 µg/mL (≈ 55.4 µM)
[13]; Run 2
  MIC: 25 µg/mL (≈ 55.4 µM)
[14]; A20107NPT2, Run 1
  MIC: 1.6 µg/mL (≈ 3.54 µM)
[14]; A20107NPT2, Run 2
  MIC: 0.8 µg/mL (≈ 1.77 µM)
[15]; Enterobacter cloacae, A21006NPT2
  MIC: 1.6 µg/mL (≈ 3.54 µM)
[15]; Run 2, E1-12
  MIC: 1.6 µg/mL (≈ 3.54 µM)
[16]; Escherichia coli
  MIC: 25 µg/mL (≈ 55.4 µM)
[16]; Run 2, Ec-53
  MIC: 25 µg/mL (≈ 55.4 µM)
[17]; Proteus vulgaris, A9436, Run 1, read-out: MIC
  MIC: 0.2 µg/mL (≈ 0.443 µM)
[17]; Run 2
  MIC: 0.2 µg/mL (≈ 0.443 µM)
[18]; Pseudomonas aeruginosa, GN315, Run 2, read-out: MIC
  MIC: > 100 µg/mL
[18]; Run 1
  MIC: > 100 µg/mL
[19]; Run 1
  MIC: 1.6 µg/mL (≈ 3.54 µM)
[19]; Run 2
  MIC: 0.8 µg/mL (≈ 1.77 µM)
[20]; Run 1
  MIC: 0.2 µg/mL (≈ 0.443 µM)
[20]; Run 2
  MIC: 0.1 µg/mL (≈ 0.221 µM)
[21]; A20601GAT1, Run 1
  MIC: 3.1 µg/mL (≈ 6.87 µM)
[21]; A20601GAT1, Run 2
  MIC: 3.1 µg/mL (≈ 6.87 µM)
[22]; Escherichia coli, JR88CAT1
  MIC: 3.1 µg/mL (≈ 6.87 µM)
[22]; Run 2, Ec-62
  MIC: 3.1 µg/mL (≈ 6.87 µM)
[23]; Escherichia coli, Run 1, read-out: MIC
  MIC: 0.8 µg/mL (≈ 1.77 µM)
[23]; Run 2
  MIC: 0.8 µg/mL (≈ 1.77 µM)
[24]; Run 1
  MIC: 50 µg/mL (≈ 111 µM)
[24]; Run 2
  MIC: 25 µg/mL (≈ 55.4 µM)
[25]; Klebsiella pneumoniae, Run 1, read-out: MIC
  MIC: 25 µg/mL (≈ 55.4 µM)
[25]; Run 2
  MIC: 25 µg/mL (≈ 55.4 µM)
[26]; ML1630NPT1, Run 1
  MIC: 1.6 µg/mL (≈ 3.54 µM)
[26]; ML1630NPT1, Run 2
  MIC: 0.8 µg/mL (≈ 1.77 µM)
[27]; Run 1
  MIC: 6.3 µg/mL (≈ 14 µM)
[27]; Run 2
  MIC: 3.1 µg/mL (≈ 6.87 µM)
[28]; Escherichia coli, JR35/C600NPT1
  MIC: 0.8 µg/mL (≈ 1.77 µM)
[28]; Run 2, Ec-10
  MIC: 0.8 µg/mL (≈ 1.77 µM)
[29]; Pseudomonas, Run 1, read-out: MIC
  MIC: 50 µg/mL (≈ 111 µM)
[29]; Run 2
  MIC: 50 µg/mL (≈ 111 µM)
[30]; Run 1
  MIC: 0.8 µg/mL (≈ 1.77 µM)
[30]; Run 2
  MIC: 0.8 µg/mL (≈ 1.77 µM)
[31]; Run 2
  MIC: 1.6 µg/mL (≈ 3.54 µM)
[31]; [34]
  MIC: 1.6 µg/mL (≈ 3.54 µM)
[32]; Escherichia coli, R5KAT
  MIC: 0.4 µg/mL (≈ 0.886 µM)
[32]; Run 2, Ec-55
  MIC: 0.4 µg/mL (≈ 0.886 µM)
[33]; A20364NPT1, Run 1
  MIC: 1.6 µg/mL (≈ 3.54 µM)
[33]; A20364NPT1, Run 2
  MIC: 1.6 µg/mL (≈ 3.54 µM)
